Patent US6355799B1, “Substituted benzene compounds, process for their preparation, and herbicidal and defoliant compositions containing them” (ISK Americas Incorporated, priority 1997, dated 2002)

Assays:
Assay type in all cases: in vivo
[1] = system: redroot pigweed (Amaranthus retroflexus, AMARE); experiment: Pre-emerge test, greenhouse herbicide activity screening; conditions: pre-emerge, 14 days after application
In short: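 Plants grown in 10 cm pots of sandy loam mix received acetone-dissolved compounds through a moving flat-fan nozzle. Doses ranged from 15 to 1000 g ai/ha. Pre-emerge pots were seeded one day earlier, post-emerge pots 8–21 days earlier. Fourteen days on, each pot was graded 0–100 for damage.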

[2] = system: barnyardgrass (Echinochloa crus-galli, ECHCG); experiment: as above; conditions: pre-emerge, 14 days after application
From the text: (§1) A standard greenhouse herbicide activity screening system was used to evaluate the herbicidal efficacy and crop safety of these test compounds. Seven broadleaf weed species including redroot pigweed (Amaranthus retroflexus, AMARE, velvetleaf (Abutilon theophrasti, ABUTH), sicklepod (Cassia obtusifolia, CASOB), ivyleaf morningglory (Ipomoea hederacea, IPOHE), lambsquarters (Chenopodium album, CHEAL), common ragweed (Ambrosia artemisizfolia L., AMBEL), and cocklebur (Xanthium strumarium, XANST) were used as test species. Four grass weed species including green foxtail (Setaria viridis, SETVI), barnyardgrass (Echinochloa crus-galli, ECHCG), johnsongrass (Sorghum halepense, SORHA), and large crabgrass (Digitaria sanguinalis, DIGSA) were also used. In addition, three crop species, field corn (Zea mays L., var. Dekalb 535, CORN), soybean (Glycine max L., var. Pella 86, SOY), and is upland rice (Oryza sp., var. Tebonnet, RICE) were included.
(§2) All plants were grown in 10 cm square plastic pots which were filled with a sandy loam soil mix. For pre-emerge tests, seeds were planted one day prior to application of the test compounds. For post-emerge tests, seeds were planted 8-21 days prior to the test to allow emergence and good foliage development prior to application of the test substances. At the time of the post-emerge application, plants of all species were usually at the 2-3 leaf stage of development.
(§3) All test compounds Were dissolved in acetone and applied to the test units in a volume of 187 l /ha. Test materials were applied at rates ranging from 15 g ai/ha to 1000 g ai/ha using a track sprayer equipped with a TJ8001E even flow flat fan spray nozzle. Plants were arranged on a shelf so that the top of the canopy (post-emerge) or top of the soil surface (pre-emerge) was 40-45 cm below the nozzle. Pressurized air was used to force the test solution through the nozzle as it was mechanically advanced (via electrically driven chain drive) over the top of all test plants/pots. This application simulates a typical commercial field herbicide application.
(§4) In the post-emerge test, a commercial non-ionic surfactant was also included (0.25% v/v) to enhance wetting of the leaf surfaces of target plants. Immediately after application, test units of the pre-emerge applications were watered at the soil surface to incorporate the test materials. Subsequently, these test units were bottom-watered. Post-emerge test units were always bottom-watered.
(§5) At 14 days after application of the test materials, phytotoxicity ratings were recorded. A rating scale of 0-100 was used as previously described in Research Methods in Weed Science, 2nd edition, B. Truelove, Ed., Southern Weed Science Society, Auburn University, Auburn, Ala. 1977. Briefly, “0” corresponds to no damage and “100” corresponds to complete death of all plants in the test unit. This scale was used both to determine efficacy against weed species and damage to crop species. Herbicide activity data for various compounds of this invention, which are shown by compound No. in Tables 1-8, are shown in Tables 11 and 12.

[3] = system: green foxtail (Setaria viridis, SETVI); experiment: as above; conditions: pre-emerge, 14 days after application
From the text: as §1, §2, §3, §4, §5

[4] = system: ivyleaf morningglory (Ipomoea hederacea, IPOHE); experiment: as above; conditions: pre-emerge, 14 days after application
From the text: as §1, §2, §3, §4, §5

[5] = system: lambsquarters (Chenopodium album, CHEAL); experiment: as above; conditions: pre-emerge, 14 days after application
From the text: as §1, §2, §3, §4, §5

[6] = system: large crabgrass (Digitaria sanguinalis, DIGSA); experiment: as above; conditions: pre-emerge, 14 days after application
From the text: as §1, §2, §3, §4, §5

[7] = system: sicklepod (Cassia obtusifolia, CASOB); experiment: as above; conditions: pre-emerge, 14 days after application
From the text: as §1, §2, §3, §4, §5

[8] = system: velvetleaf (Abutilon theophrasti, ABUTH); experiment: as above; conditions: pre-emerge, 14 days after application
From the text: as §1, §2, §3, §4, §5

[9] = system: field corn (Zea mays L., var. Dekalb 535, CORN); experiment: Pre-emerge test, crop safety; conditions: pre-emerge, 14 days after application; for phytotoxicity rating CORN (crop damage): scale 0-100; for phytotoxicity rating CORN: rating scale 0-100
From the text: as §1, §2, §3, §4, §5

[10] = system: upland rice (Oryza sp., var. Tebonnet, RICE); experiment: Pre-emerge test, crop safety; conditions: pre-emerge, 14 days after application; for phytotoxicity rating RICE (crop damage): scale 0-100; for phytotoxicity rating RICE: rating scale 0-100
From the text: as §1, §2, §3, §4, §5

[11] = system: barnyardgrass (Echinochloa crus-galli, ECHCG); experiment: Post-emerge test, greenhouse herbicide activity screening; conditions: post-emerge, 14 days after application, rating scale 0-100
From the text: as §1, §2, §3, §4, §5

[12] = system: green foxtail (Setaria viridis, SETVI); experiment: as above; conditions: post-emerge, 14 days after application, rating scale 0-100
From the text: as §1, §2, §3, §4, §5

[13] = system: ivyleaf morningglory (Ipomoea hederacea, IPOHE); experiment: as above; conditions: post-emerge, 14 days after application, rating scale 0-100
From the text: as §1, §2, §3, §4, §5

[14] = system: lambsquarters (Chenopodium album, CHEAL); experiment: as above; conditions: post-emerge, 14 days after application, rating scale 0-100
From the text: as §1, §2, §3, §4, §5

[15] = system: large crabgrass (Digitaria sanguinalis, DIGSA); experiment: as above; conditions: post-emerge, 14 days after application, rating scale 0-100
From the text: as §1, §2, §3, §4, §5

[16] = system: redroot pigweed (Amaranthus retroflexus, AMARE); experiment: as above; conditions: post-emerge, 14 days after application
From the text: as §1, §2, §3, §4, §5

[17] = system: sicklepod (Cassia obtusifolia, CASOB); experiment: as above; conditions: post-emerge, 14 days after application, rating scale 0-100
From the text: as §1, §2, §3, §4, §5

[18] = system: velvetleaf (Abutilon theophrasti, ABUTH); experiment: as above; conditions: post-emerge, 14 days after application, rating scale 0-100
From the text: as §1, §2, §3, §4, §5

[19] = system: field corn (Zea mays L., var. Dekalb 535, CORN); experiment: Post-emerge test, crop safety; conditions: post-emerge, 14 days after application, rating scale 0-100
From the text: as §1, §2, §3, §4, §5

[20] = system: upland rice (Oryza sp., var. Tebonnet, RICE); experiment: Post-emerge test, crop safety; conditions: post-emerge, 14 days after application, rating scale 0-100
From the text: as §1, §2, §3, §4, §5

[21] = 250 g ai/ha, rating scale 0-100

`COc1c(Cl)cc(F)c(-n2c(=O)cc(C(F)(F)F)n(C)c2=O)c1NC(=O)COc1ccc(Cl)cc1` [2-135] was tested, and the “phytotoxicity rating AMARE” value ([1]; 63 g ai/ha, scale 0-100) was 95, the “phytotoxicity rating AMARE” value ([1]; 250 g ai/ha, scale 0-100) was 100 and the “phytotoxicity rating ECHCG” value ([2]; 63 g ai/ha, scale 0-100) was 10. For the same compound, the “phytotoxicity rating ECHCG” value ([2]; 250 g ai/ha, scale 0-100) was 30, the “phytotoxicity rating SETVI” value ([3]; 63 g ai/ha, scale 0-100) was 80 and the “phytotoxicity rating SETVI” value ([3]; 250 g ai/ha, scale 0-100) was 100. The “phytotoxicity rating IPOHE” value ([4]; 63 g ai/ha, scale 0-100) was 20, the “phytotoxicity rating IPOHE” value ([4]; 250 g ai/ha, scale 0-100) was 100 and the “phytotoxicity rating CHEAL” value ([5]; 63 g ai/ha, scale 0-100) was 100. For the same compound, the “phytotoxicity rating CHEAL” value ([5]; 250 g ai/ha, scale 0-100) was 100, the “phytotoxicity rating DIGSA” value ([6]; 63 g ai/ha, scale 0-100) was 60 and the “phytotoxicity rating DIGSA” value ([6]; 250 g ai/ha, scale 0-100) was 95. The “phytotoxicity rating CASOB” value ([7]; 63 g ai/ha, scale 0-100) was 10, the “phytotoxicity rating CASOB” value ([7]; 250 g ai/ha, scale 0-100) was 60 and the “phytotoxicity rating ABUTH” value ([8]; 63 g ai/ha, scale 0-100) was 90. The “phytotoxicity rating ABUTH” value ([8]; 250 g ai/ha, scale 0-100) was 100, the “phytotoxicity rating CORN (crop damage)” value ([9]; 63 g ai/ha) was 0 and the “phytotoxicity rating CORN (crop damage)” value ([9]; 250 g ai/ha) was 0. The “phytotoxicity rating RICE (crop damage)” value ([10]; 63 g ai/ha) was 0, the “phytotoxicity rating RICE (crop damage)” value ([10]; 250 g ai/ha) was 35 and the ECHCG phytotoxicity rating ([11]; 63 g ai/ha) was 0. The ECHCG phytotoxicity rating ([11]; 250 g ai/ha) was 20, the SETVI phytotoxicity rating ([12]; 63 g ai/ha) was 15 and the SETVI phytotoxicity rating ([12]; 250 g ai/ha) was 40. It also gave an IPOHE phytotoxicity rating ([13]; 63 g ai/ha) of 100, an IPOHE phytotoxicity rating ([13]; 250 g ai/ha) of 95 and a CHEAL phytotoxicity rating ([14]; 63 g ai/ha) of 100. It also gave a CHEAL phytotoxicity rating ([14]; 250 g ai/ha) of 100, a DIGSA phytotoxicity rating ([15]; 63 g ai/ha) of 0 and a DIGSA phytotoxicity rating ([15]; 250 g ai/ha) of 10. For the same compound, the AMARE phytotoxicity rating ([16]; 63 g ai/ha, rating scale 0-100) was 100, the AMARE phytotoxicity rating [16, 21] was 100 and the CASOB phytotoxicity rating ([17]; 63 g ai/ha) was 70. For the same compound, the CASOB phytotoxicity rating ([17]; 250 g ai/ha) was 100, the ABUTH phytotoxicity rating ([18]; 63 g ai/ha) was 100 and the ABUTH phytotoxicity rating ([18]; 250 g ai/ha) was 100. The “CORN phytotoxicity rating (crop damage)” value ([19]; 63 g ai/ha) was 10, the “CORN phytotoxicity rating (crop damage)” value ([19]; 250 g ai/ha) was 25 and the “RICE phytotoxicity rating (crop damage)” value ([20]; 63 g ai/ha) was 20. For the same compound, the “RICE phytotoxicity rating (crop damage)” value ([20]; 250 g ai/ha) was 40.
With `COc1c(Cl)cc(F)c(-n2c(=O)cc(C(F)(F)F)n(C)c2=O)c1NNC(=O)c1ccc2ccccc2c1` [15-5] the “phytotoxicity rating AMARE” value ([1]; 63 g ai/ha, rating scale 0-100) was 100, the “phytotoxicity rating AMARE” value [1, 21] was 100 and the “phytotoxicity rating ECHCG” value ([2]; 63 g ai/ha, rating scale 0-100) was 70. The “phytotoxicity rating ECHCG” value [2, 21] was 99, the “phytotoxicity rating SETVI” value ([3]; 63 g ai/ha, rating scale 0-100) was 100 and the “phytotoxicity rating SETVI” value [3, 21] was 100. For the same compound, the “phytotoxicity rating IPOHE” value ([4]; 63 g ai/ha, rating scale 0-100) was 100, the “phytotoxicity rating IPOHE” value [4, 21] was 100 and the “phytotoxicity rating CHEAL” value ([5]; 63 g ai/ha, rating scale 0-100) was 100. For the same compound, the “phytotoxicity rating CHEAL” value [5, 21] was 100, the “phytotoxicity rating DIGSA” value ([6]; 63 g ai/ha, rating scale 0-100) was 100 and the “phytotoxicity rating DIGSA” value [6, 21] was 100. The “phytotoxicity rating CASOB” value ([7]; 63 g ai/ha, rating scale 0-100) was 100, the “phytotoxicity rating CASOB” value [7, 21] was 100 and the “phytotoxicity rating ABUTH” value ([8]; 63 g ai/ha, rating scale 0-100) was 100. For the same compound, the “phytotoxicity rating ABUTH” value [8, 21] was 100, the “phytotoxicity rating CORN” value ([9]; 63 g ai/ha) was 80 and the “phytotoxicity rating CORN” value ([9]; 250 g ai/ha) was 99. The “phytotoxicity rating RICE” value ([10]; 63 g ai/ha) was 70, the “phytotoxicity rating RICE” value ([10]; 250 g ai/ha) was 99 and the “Post-emerge Herbicidal Activity ECHCG (phytotoxicity rating)” value ([11]; 63 g ai/ha) was 40. For the same compound, the “Post-emerge Herbicidal Activity ECHCG (phytotoxicity rating)” value ([11]; 250 g ai/ha) was 90, the “Post-emerge Herbicidal Activity SETVI (phytotoxicity rating)” value ([12]; 63 g ai/ha) was 40 and the “Post-emerge Herbicidal Activity SETVI (phytotoxicity rating)” value ([12]; 250 g ai/ha) was 80. The “Post-emerge Herbicidal Activity IPOHE (phytotoxicity rating)” value ([13]; 63 g ai/ha) was 90, the “Post-emerge Herbicidal Activity IPOHE (phytotoxicity rating)” value ([13]; 250 g ai/ha) was 100 and the “Post-emerge Herbicidal Activity CHEAL (phytotoxicity rating)” value ([14]; 63 g ai/ha) was 100. For the same compound, the “Post-emerge Herbicidal Activity CHEAL (phytotoxicity rating)” value ([14]; 250 g ai/ha) was 100, the “Post-emerge Herbicidal Activity DIGSA (phytotoxicity rating)” value ([15]; 63 g ai/ha) was 30 and the “Post-emerge Herbicidal Activity DIGSA (phytotoxicity rating)” value ([15]; 250 g ai/ha) was 70. For the same compound, the “Post-emerge Herbicidal Activity AMARE (phytotoxicity rating)” value ([16]; 63 g ai/ha, rating scale 0-100 (0 no damage, 100 complete death)) was 70, the “Post-emerge Herbicidal Activity AMARE (phytotoxicity rating)” value [16, 21] was 100 and the “Post-emerge Herbicidal Activity CASOB (phytotoxicity rating)” value ([17]; 63 g ai/ha) was 40. For the same compound, the “Post-emerge Herbicidal Activity CASOB (phytotoxicity rating)” value ([17]; 250 g ai/ha) was 80, the “Post-emerge Herbicidal Activity ABUTH (phytotoxicity rating)” value ([18]; 63 g ai/ha) was 100 and the “Post-emerge Herbicidal Activity ABUTH (phytotoxicity rating)” value ([18]; 250 g ai/ha) was 100. The “Post-emerge Herbicidal Activity CORN (crop damage rating)” value ([19]; 63 g ai/ha) was 70, the “Post-emerge Herbicidal Activity CORN (crop damage rating)” value ([19]; 250 g ai/ha) was 90 and the “Post-emerge Herbicidal Activity RICE (crop damage rating)” value ([20]; 63 g ai/ha) was 60. The “Post-emerge Herbicidal Activity RICE (crop damage rating)” value ([20]; 250 g ai/ha) was 90.
